Experimental data published in patent US20260138961A1, “MODULATORS OF MITOCHONDRIAL DNA REPLICATION” (Pretzel Therapeutics, Inc., priority 2022, published 2026).

These compounds were tested against T1, wild type human POLγ (POLγA:WT) (Homo sapiens, UniProt P54098) (assay: DNA polymerization assay, wild type POLγ). Conditions: 100 μM dNTP, read-out: WT AC50 (μM) at 100 μM.
T1 sequence (P54098 1-1239): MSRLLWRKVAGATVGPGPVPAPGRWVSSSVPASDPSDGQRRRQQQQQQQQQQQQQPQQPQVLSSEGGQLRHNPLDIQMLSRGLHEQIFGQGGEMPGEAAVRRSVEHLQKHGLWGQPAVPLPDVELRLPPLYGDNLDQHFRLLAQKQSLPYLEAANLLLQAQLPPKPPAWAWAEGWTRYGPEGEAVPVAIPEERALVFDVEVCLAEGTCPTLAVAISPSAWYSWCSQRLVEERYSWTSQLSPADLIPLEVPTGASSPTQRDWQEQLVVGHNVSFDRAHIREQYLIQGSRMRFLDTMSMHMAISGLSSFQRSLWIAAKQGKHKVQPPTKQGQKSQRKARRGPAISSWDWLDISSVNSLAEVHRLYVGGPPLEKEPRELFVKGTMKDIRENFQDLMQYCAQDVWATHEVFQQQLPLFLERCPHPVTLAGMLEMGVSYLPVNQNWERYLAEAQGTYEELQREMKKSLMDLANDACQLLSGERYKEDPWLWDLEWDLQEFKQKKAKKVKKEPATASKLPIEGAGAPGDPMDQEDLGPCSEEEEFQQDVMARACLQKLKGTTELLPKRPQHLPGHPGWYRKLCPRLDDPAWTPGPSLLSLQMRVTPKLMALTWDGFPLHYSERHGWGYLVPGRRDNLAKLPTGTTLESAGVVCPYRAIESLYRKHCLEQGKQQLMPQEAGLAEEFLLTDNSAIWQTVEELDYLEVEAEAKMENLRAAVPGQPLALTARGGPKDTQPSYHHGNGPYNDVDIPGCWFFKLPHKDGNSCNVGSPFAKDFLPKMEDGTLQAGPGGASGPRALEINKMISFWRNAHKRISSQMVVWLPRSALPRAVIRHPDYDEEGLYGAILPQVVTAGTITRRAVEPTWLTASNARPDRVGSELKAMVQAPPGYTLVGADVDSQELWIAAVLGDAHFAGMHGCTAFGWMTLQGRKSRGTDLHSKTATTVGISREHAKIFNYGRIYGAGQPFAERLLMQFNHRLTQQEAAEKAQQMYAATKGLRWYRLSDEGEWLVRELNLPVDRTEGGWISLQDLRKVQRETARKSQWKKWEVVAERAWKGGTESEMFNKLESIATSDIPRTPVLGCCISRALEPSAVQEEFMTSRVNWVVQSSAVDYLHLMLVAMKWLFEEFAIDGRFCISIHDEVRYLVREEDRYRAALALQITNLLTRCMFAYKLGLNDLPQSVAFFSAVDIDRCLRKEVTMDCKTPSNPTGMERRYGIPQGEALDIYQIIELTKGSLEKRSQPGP
T1 sequence (Q9UHN1 1-485 partner): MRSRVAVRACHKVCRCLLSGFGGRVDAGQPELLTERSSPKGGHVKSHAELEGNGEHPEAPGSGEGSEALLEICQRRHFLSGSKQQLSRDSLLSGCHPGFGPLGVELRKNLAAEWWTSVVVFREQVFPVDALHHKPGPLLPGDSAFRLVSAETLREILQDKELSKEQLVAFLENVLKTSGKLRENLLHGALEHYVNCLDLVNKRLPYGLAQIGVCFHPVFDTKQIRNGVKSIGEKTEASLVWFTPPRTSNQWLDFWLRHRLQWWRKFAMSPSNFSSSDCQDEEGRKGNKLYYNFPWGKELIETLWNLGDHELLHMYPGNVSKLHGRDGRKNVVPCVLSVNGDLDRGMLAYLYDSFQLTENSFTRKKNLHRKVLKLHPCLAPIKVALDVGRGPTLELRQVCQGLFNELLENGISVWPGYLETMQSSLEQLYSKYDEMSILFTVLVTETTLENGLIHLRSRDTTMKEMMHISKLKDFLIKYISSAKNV
Assay type: biochemical
Experimental: DNA Polymerization Assay to Monitor Effects on Human Wildtype POLγ and Four Disease-Causing Mutant Variants of Human POLγ.
The ability of small molecules to stimulate the polymerase activity of POLγ was analyzed in a quantitative fluorescence SYBR Green I assay with fluorescence intensity (FI) readout.
In the presence of dNTPs, wild type human POLγ and mutant derivatives thereof were incubated with single-stranded, circular M13mp18 ssDNA hybridized to a short DNA oligonucleotide that functions as a primer for initiation of DNA synthesis. POLγ and mutant derivatives thereof will extend the primer and use the M13mp18 molecule as a template to synthesize long stretches of double-stranded DNA. SYBR Green I, which is a double-stranded DNA-binding dye, was used to quantify formation of double-stranded DNA in the reaction. When bound to double-stranded DNA, SYBR Green I fluorescence increases by up to 100-fold.
The assay was performed in the 384-well plate format. Upon addition of compounds, changes in double-stranded DNA synthesis activity can be monitored by following effects on fluorescent intensity.
The reactions also contained the accessory POLγB subunit, and the human mitochondrial single-stranded DNA binding protein (mtSSB).
The DNA template mixture used in the assay contained 0.5 nM primed M13 mp18 ssDNA, 400 nM mtSSB, 0.1 mM Tris-HCl (pH 8.0), 0.1 mM dNTP, 10 mM MgCl2, 0.1 mg/mL BSA, 1 mM TCEP solution, and 0.02% Triton X-100. The DNA template mixture for the wild type protein contained either 100 μM dNTP, 1 μM dNTP, or 0.1 μM dNTP, designated in Table 2 as 100 μM, 1 μM, and 0.1 μM, respectfully.
Microplates with compounds (0.1 μL in each well) to be tested in the assay were prepared from 10 mM compound stocks in 100% DMSO, and equal amounts of DMSO without any compound were added to positive and negative control wells.
The protein mixture was dispensed (5 μL into each well) into compound plates and incubated at 37° C. for 15 minutes. After incubation, 5 μL of the DNA template mixture was dispensed into each well. The plates were then incubated at 37° C. for 2 hours.
During incubation, a combined stop buffer and detection reagent solution was prepared. The buffer contained 25 mM EDTA (pH 8.0), 0.02% Triton X-100, and SYBR Green I [Invitrogen] diluted 10,000× (for fluorescent readout). EDTA will stop the enzymatic reaction by chelating magnesium ions.
For `Cc1cc(S(=O)(=O)Nc2cccc(C(=O)N3CCCOC(C)(C)C3)c2)c(C)cc1Cl` [Example 106, 4-chloro-N-(3-(2,2-dimethyl-1,4-oxazepane-4-carbonyl)phenyl)-2,5-dimethylbenzenesulfonamide], the AC50 was 32 µM.
For `Cc1cc(S(=O)(=O)Nc2cccc(C(=O)N3CCc4cn[nH]c4C3)c2)c(C)cc1Cl` [Example 107, 4-chloro-2,5-dimethyl-N-(3-(4,5,6,7-tetrahydro-1H-pyrazolo[3,4-c]pyridine-6-carbonyl)phenyl)benzenesulfonamide], the AC50 was 1 µM.
For `Cc1cc(S(=O)(=O)Nc2cccc(C(=O)N3C[C@H](C)[C@@H](N)C3)c2)c(C)cc1Cl` [Example 108, N-(3-((3R,4S)-3-amino-4-methylpyrrolidine-1-carbonyl)phenyl)-4-chloro-2,5-dimethylbenzenesulfonamide], the AC50 was 24 µM.
For `Cc1cc(S(=O)(=O)Nc2cccc(C(=O)N(C)c3ccccn3)c2)c(C)cc1Cl` [Example 109, 3-((4-chloro-2,5-dimethylphenyl)sulfonamido)-N-methyl-N-(pyridin-2-yl)benzamide], the AC50 was > 100 µM.
`Cc1cc(NS(=O)(=O)c2cc(C)c(Cl)cc2C)cc(-c2ncc(C)s2)c1` [Example 110, 4-chloro-2,5-dimethyl-N-(3-methyl-5-(5-methylthiazol-2-yl)phenyl)benzenesulfonamide] was tested, and the AC50 was > 100 µM.
`Cc1cnc(-c2cc(NS(=O)(=O)c3cc(C)c(Cl)cc3C)ccc2Cl)s1` [Example 111, 4-chloro-N-(4-chloro-3-(5-methylthiazol-2-yl)phenyl)-2,5-dimethylbenzenesulfonamide] showed an AC50 of 3 µM.
`Cc1cc(S(=O)(=O)Nc2cccc(C(=O)N(C(C)C)C3COC3)c2)c(C)cc1Cl` [Example 112, 3-((4-chloro-2,5-dimethylphenyl)sulfonamido)-N-isopropyl-N-(oxetan-3-yl)benzamide] gave an AC50 of 20 µM.
For `Cc1cc(Cl)ccc1S(=O)(=O)Nc1cccc(C(=O)N2CCC[C@H]2C)c1` [Example 116, (R)-4-chloro-2-methyl-N-(3-(2-methylpyrrolidine-1-carbonyl)phenyl)benzenesulfonamide], the AC50 was > 10 µM.
`Cc1cc(S(=O)(=O)Nc2cccc(C(=O)N3CCCC3)c2)c(C)cc1Cl` [Example 119, 4-chloro-2,5-dimethyl-N-(3-(pyrrolidine-1-carbonyl)phenyl) benzenesulfonamide] was tested, and the AC50 was > 10 µM.
Work on `Cc1ccc(S(=O)(=O)Nc2csc(-c3ccccc3)n2)c(C)c1` [Example 123, 2,4-dimethyl-N-(2-phenylthiazol-4-yl)benzenesulfonamide] yielded an AC50 of 3 µM.
Work on `Cc1cc(F)ccc1S(=O)(=O)Nc1csc(-c2ccccc2)n1` [Example 124, 4-fluoro-2-methyl-N-(2-phenylthiazol-4-yl)benzenesulfonamide] yielded an AC50 of 1 µM.
In the case of `O=S(=O)(Nc1csc(-c2ccccc2)n1)c1ccccc1Cl` [Example 125, 2-chloro-N-(2-phenylthiazol-4-yl)benzenesulfonamide], the AC50 is reported as > 10 µM.
`Cc1cc(S(=O)(=O)Nc2nsc(-c3ccccc3)n2)c(C)cc1Cl` [Example 131, 4-chloro-2,5-dimethyl-N-(5-phenyl-1,2,4-thiadiazol-3-yl)benzenesulfonamide] was tested, and the AC50 was 1 µM.
`Cc1ccc(C)c(S(=O)(=O)Nc2csc(-c3ccccc3)n2)c1` [Example 134, 2,5-dimethyl-N-(2-phenylthiazol-4-yl)benzenesulfonamide] was tested, and the AC50 was 0.3 µM.
Work on `Cc1cc(Cl)ccc1S(=O)(=O)Nc1csc(-c2ccccc2)n1` [Example 135, 4-chloro-2-methyl-N-(2-phenylthiazol-4-yl)benzenesulfonamide] yielded an AC50 of 0.6 µM.
With `Cc1cc(S(=O)(=O)Nc2csc(-c3ccccc3)n2)c(Cl)cc1F` [Example 136, 2-chloro-4-fluoro-5-methyl-N-(2-phenylthiazol-4-yl)benzenesulfonamide] the AC50 was 0.8 µM.
With `Cc1cc(S(=O)(=O)Nc2nc(-c3ccccc3)no2)c(C)cc1Cl` [Example 143, 4-chloro-2,5-dimethyl-N-(3-phenyl-1,2,4-oxadiazol-5-yl)benzenesulfonamide] the AC50 was > 10 µM.
For `O=S(=O)(Nc1csc(-c2ccccc2)n1)c1cccc(C(F)(F)F)c1` [Example 151, N-(2-phenylthiazol-4-yl)-3-(trifluoromethyl)benzenesulfonamide], the AC50 was > 10 µM.
With `O=S(=O)(Nc1csc(-c2ccccc2)n1)c1ccc2c(c1)CCO2` [Example 152, N-(2-phenylthiazol-4-yl)-2,3-dihydrobenzofuran-5-sulfonamide] the AC50 was > 10 µM.
`Cc1cc(S(=O)(=O)Nc2ccc3c(c2)CC(=O)N3)c(C)cc1Cl` [Example 185, 4-chloro-2,5-dimethyl-N-(2-oxoindolin-5-yl)benzenesulfonamide] showed an AC50 of 6 µM.
In the case of “(R)-2,5-dimethyl-N-(3-(3-methylmorpholine-4-carbonyl)phenyl)benzenesulfonamide [Example 1]”, the AC50 is reported as 2 µM.

Same assay, conditions: WT AC50 (μM) at 100 μM, 100 μM dNTP
For `Cc1cc(S(=O)(=O)Nc2noc(-c3ccccc3)n2)c(C)cc1Cl` [Example 142, 4-chloro-2,5-dimethyl-N-(5-phenyl-1,2,4-oxadiazol-3-yl)benzenesulfonamide], the AC50 was > 10 µM.
